Laboratory results: patent US20100324067A1, “TETRACYCLIC DIPYRANO-COUMARIN COMPOUNDS WITH ANTI-HIV AND ANTI-MYCOBACTERIUM TUBERCULOSIS ACTIVITIES” (priority 2007, published 2010)
≈ marks a conversion by molar mass, not a printed value. Where two headings read alike, the source gives them in different places.

Columns and labels:
HIV-1 [1] = experiment: Inhibitory activity against HIV-1 (literature method, Chen et al. J Virol 1997); settings: for inhibition at 1 µM: Human immunodeficiency virus 1, read-out: Anti-HIV (%, 1.0 μM)
Experimental: Inhibitory activity of the coumarin derivatives of the present invention against HIV-1.
Inhibitory activity of the compounds against HIV-1 is assayed using the literature method. The experimental conditions, procedures, reagents and so on of the experiment are referred to the reference of “ZHIWEI CHEN, PEI ZHOU, DAVID D. HO, et al. Genetically divergent strains of simian immuno-deficiency virus use CCR5 as a coreceptor for entry. Journal of Virology, 1997, 71(4): 2705-2714”.

host cells of the virus = experiment: Cell toxicity to the host cells of the virus at 10 μM; type: cell-based
[2] = tested on: Mycobacterium tuberculosis H37Rv (ATCC 27294); experiment: Microplate Alamar Blue Assay (MABA) in BACTEC 12B medium (TAACF screen); type: cell-based
HIV-1 [3] = settings: cited from earlier work
H37Rv strain = H37Rv strain growth; Bioorg. Med. Chem., 2004, 1199-1207; cited from earlier work
[4] = tested on: CEM-SS cells (human T-lymphoblastic cells); settings: cited from earlier work
[5] = read-out: anti-TB active compound (MIC90 less than 10 μg/mL), classification

Which inhibition at 1 µM (HIV-1 [1]) does the source give for `CCc1cc(=O)oc2c3c(c4c(c12)OC(C)C=C4)OC(C)CC3=O` (stereo not shown) [Example 79, 6,10-dimethyl-4-ethyl-2H,6H,12H-benzo[1,2-b:3,4-b′:5,6-b″]-tripyranyl-2,12-dione] here?
Its inhibition at 1 µM is 57.4%.

And the “Cell toxicity (10 μM)” value (host cells of the virus)?
The value was “−”.

What about the IC50 [2] of the same molecule?
Its IC50 is 6.07 µg/mL (≈ 18.6 µM).

What about the MIC90 ([2]; MABA, H37Rv, read-out: MIC90) of the same molecule?
The MIC90 was 6.84 µg/mL (≈ 21 µM).

What about the melting point of the same molecule?
The melting point was 133 to 134 °C.

What does the source list for `C/C=C/C1C=Cc2c3c(c4oc(=O)cc(CC)c4c2O1)C(=O)CC(C)O3` (stereo not shown) [Example 87, 4-ethyl-6-propenyl-10-methyl-2H,6H,12H-benzo[1,2-b:3,4-b′:5,6-b″]-tripyranyl-2,12-d ione]?
inhibition at 1 µM (HIV-1 [1]): 56.4%; Cell toxicity (10 μM) (host cells of the virus): −; IC50 [2]: 51.2 µg/mL (≈ 145 µM); MIC90 ([2]; MABA, H37Rv, read-out: MIC90): > 100 µg/mL; melting point: 153 to 155 °C

With `CCCc1cc(=O)oc2c3c(c4c(c12)OC(C)(C)C=C4)O[C@H](C)[C@@H](C)[C@@H]3O` [(+)-Calanolide A, (+)-calanolide A] as the molecule, how does the inhibition at 1 µM (HIV-1 [1]) read?
The inhibition at 1 µM was 86%.

What about the “Cell toxicity (10 μM), number printed before the class symbol” value (host cells of the virus; 10 μM) of the same molecule?
Its value is 6%.

What about the “therapeutic index (TI)” value (HIV-1 [3]; J. MED. CHEM. 1996, 39, 1303) of the same molecule?
The value was 16-279.

What about the EC50 (HIV-1 [3]; anti-HIV-1, literature, read-out: EC50) of the same molecule?
The EC50 was 100 nM.

And the EC50 (HIV-1 [3]; from J. Med. Chem. 1996, 39(6):1303-13, unit inferred, read-out: EC50 (TI))?
Its EC50 is 100 to 200 nM.

And the “activity against TIBO of pyridinone-resistant A17 strains” value (HIV-1 [3]; resistant strain A17)?
Its value is “active”.

What about the “activity against AZT-1-resistant strains (G-9106) of HIV-1” value (HIV-1 [3]; resistant strain G-9106) of the same molecule?
The value was “active”.

What about the MIC90 (H37Rv strain) of the same molecule?
The MIC90 was 3.13 µg/mL (≈ 8.45 µM).

What about the CC50 [4] of the same molecule?
Its CC50 is 20000 nM.

Which EC50 (HIV-1 [1]; Human immunodeficiency virus 1) does the source give for `CCCc1cc(=O)oc2c3c(c4c(c12)OC(C)(C)C=C4)OC1CC1C3=O` (stereo not drawn) [Example 70, 6,6,-dimethyl-4-propyl-10,11-cis-cyclopropyl-2H,6H,12H-benzo[1,2-b:3,4-b′:5,6-b″]tripyranyl-2,12-dione] here?
The EC50 was 14.1 nM.

And the inhibition at 1 µM (HIV-1 [1])?
Its inhibition at 1 µM is 68.6%.

And the “anti-HIV-1 activity in vitro compared to (+)-calanolide A” value (HIV-1 [1]; in words)?
Its value is “much higher inhibitory activity”.

And the “therapeutic index, in words” value (HIV-1 [1]; in words)?
Its value is “high therapeutic index”.

What about the “Therapeutic index (TI) = 50% cytotoxicity doses/50% effective dose” value (HIV-1 [1]; value in brackets after EC50) of the same molecule?
Its value is 709-2127.

What about the “Cell toxicity (10 μM)” value (host cells of the virus) of the same molecule?
The value was “−”.

What about the IC50 [2] of the same molecule?
Its IC50 is 3.31 µg/mL (≈ 9.38 µM).

What about the MIC90 ([2]; MABA, H37Rv, read-out: MIC90) of the same molecule?
The MIC90 was 5.54 µg/mL (≈ 15.7 µM).

What about the MIC90 [2, 5] of the same molecule?
Its MIC90 is less than 10 µg/mL.

And the melting point?
The melting point was 113 to 115 °C.

Which inhibition at 1 µM (HIV-1 [1]) does the source give for `CCc1c(F)c(=O)oc2c3c(c4c(c12)OC(C)C=C4)OC(C)CC3=O` (stereo not shown) [Example 83, 6,10-dimethyl-4-ethyl-3-fluoro-2H, H, 12H-benzo[1,2-b:3,4-b′: 5,6-b″]-tripyranyl-2,12-dione] here?
Its inhibition at 1 µM is 39.5%.

What about the “Cell toxicity (10 μM)” value (host cells of the virus) of the same molecule?
Its value is “−”.

What about the IC50 [2] of the same molecule?
The IC50 was 24.4 µg/mL (≈ 70.9 µM).

What about the MIC90 ([2]; MABA, H37Rv, read-out: MIC90) of the same molecule?
Its MIC90 is 27.7 µg/mL (≈ 80.4 µM).

What about the melting point of the same molecule?
The melting point was 141 to 142 °C.

Which results are given for `CCCc1c(Cl)c(=O)oc2c3c(c4c(c12)OCC(C)C4OCC)OC(C)CC3=O` (stereo not shown) [Example 96, 8-ethoxyl-7,10-dimethyl-4-n-propyl-3-chloro-7,8,10,11-tetrahydro-6H-benzo[2,3-f;2′,3′-h]-tripyranyl-2,12-dione]?
inhibition at 1 µM (HIV-1 [1]): 51.7%; Cell toxicity (10 μM) (host cells of the virus): −; IC50 [2]: 11.1 µg/mL (≈ 26.4 µM); MIC90 ([2]; MABA, H37Rv, read-out: MIC90): 22.2 µg/mL (≈ 52.8 µM); melting point: 187 to 189 °C

Which inhibition at 1 µM (HIV-1 [1]) does the source give for `CCCCc1cc(=O)oc2c3c(c4c(c12)OC(C)C=C4)OC(C)CC3=O` (stereo not shown) [Example 82, 6,10-dimethyl-4-n-butyl-2H,6H,12H-benzo[1,2-b:3,4-b′:5,6-b″]-tripyranyl-2,12-dione] here?
The inhibition at 1 µM was 75.4%.

What about the “Cell toxicity (10 μM)” value (host cells of the virus) of the same molecule?
The value was “−”.

What about the IC50 [2] of the same molecule?
The IC50 was 36.3 µg/mL (≈ 102 µM).

What about the MIC90 ([2]; MABA, H37Rv, read-out: MIC90) of the same molecule?
Its MIC90 is 56.2 µg/mL (≈ 158 µM).

What about the melting point of the same molecule?
Its melting point is 128 to 129 °C.

With `CC1CC(=O)c2c(c3c(c4c(CCC(F)(F)F)cc(=O)oc24)OC(c2ccccc2)C=C3)O1` (stereo not shown) [Example 74, 4-(3,3′, 3″-trifluoro-n-propyl)-6-phenyl-O-methyl-2H,6H, 2H-benzo[1,2-b:3,4-b′:5,6-b″]-tripyranyl-2,12-dione] as the molecule, how does the inhibition at 1 µM (HIV-1 [1]) read?
Its inhibition at 1 µM is 47.6%.

What about the “Cell toxicity (10 μM)” value (host cells of the virus) of the same molecule?
The value was “−”.

What about the IC50 [2] of the same molecule?
Its IC50 is 5.7 µg/mL (≈ 12.5 µM).

What about the MIC90 ([2]; MABA, H37Rv, read-out: MIC90) of the same molecule?
The MIC90 was 6.38 µg/mL (≈ 14 µM).

What about the MIC90 [2, 5] of the same molecule?
Its MIC90 is less than 10 µg/mL.

And the melting point?
The melting point was 171 to 173 °C.

Which results are given for `CCCc1cc(=O)oc2c3c(c4c(c12)OC(CCC)C=C4)OC(C)CC3=O` (stereo not shown) [Example 34, 10-methyl-4,6-di(-n-propyl)-2H,6H,12H-benzo[1,2-b:3,4-b′:5,6-b″]-tripyranyl-2,12-dione]?
inhibition at 1 µM (HIV-1 [1]): 54.1%; Cell toxicity (10 μM) (host cells of the virus): −; IC50 [2]: 2.88 µg/mL (≈ 7.8 µM); MIC90 ([2]; MABA, H37Rv, read-out: MIC90): 3.18 µg/mL (≈ 8.64 µM); MIC90 [2, 5]: < 10 µg/mL; melting point: 158 to 160 °C

Which inhibition at 1 µM (HIV-1 [1]) does the source give for `C/C=C/C1C=Cc2c3c(c4oc(=O)c(F)c(CC)c4c2O1)C(=O)CC(C)O3` (stereo not shown) [Example 88, 4-ethyl-6-propenyl-3-fluoro-10-methyl-2H,6H,12H-benzo[1,2-b:3,4-b′:5,6-b″]-tripyranyl-2,12-dione] here?
The inhibition at 1 µM was 46.2%.

What about the “Cell toxicity (10 μM)” value (host cells of the virus) of the same molecule?
Its value is “−”.

What about the IC50 [2] of the same molecule?
Its IC50 is 70.7 µg/mL (≈ 191 µM).

What about the MIC90 ([2]; MABA, H37Rv, read-out: MIC90) of the same molecule?
The MIC90 was greater than 100 µg/mL.

What about the melting point of the same molecule?
The melting point was 158 to 161 °C.

For `COc1cc(-c2cc(=O)oc3c4c(c5c(c23)OC(C)(C)C=C5)OC(C)CC4=O)cc(OC)c1OC` (stereo not shown) [Example 24, 6,6,10-trimethyl-4-(3,4,5-trimethoxyl)-phenyl-2H,6H,12H-benzo[1,2-b:3,4-b′:5,6-b″]-tripyranyl-2,12-dione], which inhibition at 1 µM (HIV-1 [1]) is on record?
The inhibition at 1 µM was 58%.

What about the “Cell toxicity (10 μM)” value (host cells of the virus) of the same molecule?
Its value is “−”.

And the melting point?
The melting point was 129 to 131 °C.
